According to US6620819B2, “Anticonvulsant derivatives useful in treating psychosis” (Ortho-McNeil Pharmaceutical, Inc., priority 1999, dated 2003):

How the values were obtained:
[1] = test system: behavioral agitation in dementia; conditions: some patients with dementia; cited from earlier work
[2] = test system: patients with psychosis, not otherwise specified; assay: retrospective chart review of open label add-on topiramate, psychosis patients; type: in vivo, human; conditions: both psychosis inpatients; daily mean dose 260 mg, duration 10.7 weeks; added to existing pharmacotherapy, several on risperidone
Procedure: (§1) A retrospective analysis of patients treated in an open label manner with topiramate for dementia and/or behavioral and psychotic disturbances in dementia was performed.
(§2) The charts of 58 consecutive patients with diagnosed psychiatric disorders refractory to conventional mood stabilizers who were treated with topiramate were selected for retrospective review. Topiramate 25 mg BID was added to existing pharmacotherapy on an open label basis. It was titrated upward in 50 mg (25 mg bid) increments every seven days until improvement occurred or a total dosage of 400 mg per day was reached. Charts were retrospectively reviewed for the following data: demographic information, psychiatric diagnosis and duration of illness, general medical history, daily dose of topiramate and regimen, duration of topiramate therapy, reason for discontinuation of topiramate therapy, previous therapy, concurrent medications, adverse events and evaluation of response to topiramate.
(§3) Results were analyzed using descriptive statistics. When possible, results are expressed as means with standard deviation (SD). […] Improvement was investigator rated and included a qualitative assessment of changes in sleep, appetite, mood and concentration during therapy. Adverse events reported by the patients were recorded during therapy and assessed for their relationship to study therapy. […]

[3] = test system: simple and complex partial seizures and secondarily generalized seizures; conditions: adjunctive therapy or monotherapy, clinical trials; cited from earlier work
[4] = test system: seizures in several rodent models of epilepsy; conditions: cited from earlier work
kindled epilepsy = conditions: animal model of kindled epilepsy; cited from earlier work
patients with dementia = assay: retrospective chart review of open label add-on topiramate, dementia patients; type: in vivo, human; conditions: all three dementia inpatients; daily mean dose 210 mg, duration 11.7 weeks; added to existing pharmacotherapy, several on risperidone
Procedure: as §1, §2, §3

SMILES | control of behavioral agitation [1] | investigator rated response (Likert scale worse / no change / minimally improved / markedly improved) [2] | efficacy in treating simple and complex partial seizures and secondarily generalized seizures [3] | block of seizures [4] | block of seizures (kindled epilepsy) | investigator rated response (Likert scale worse / no change / minimally improved / markedly improved) (patients with dementia)
NC(=O)N1c2ccccc2C=Cc2ccccc21 [carbamazepine] | efficacious |  |  |  |  | 
CCCC(CCC)C(=O)O [divalproex sodium] | efficacious |  |  |  |  | 
CC1(C)O[C@@H]2[C@@H](CO[C@@]3(COS(N)(=O)=O)OC(C)(C)O[C@@H]23)O1 [topiramate, 2,3:4,5-bis-O-(1-methylethylidene)-β-D-fructopyranose sulfamate] |  | marked or moderate improvement | effective | effectively block seizures | effectively block seizures | marked or moderate improvement
